# Data as given in patent publication US8362070B2, “Application of puerarin in the preparation of P2X3 mediated drugs for pain/nervous system diseases” (Nanchang University, priority 2009, dated 2013).
# Key:
# [1] = tested on: rats that suffer from neuropathic pain (chronic constriction injury of sciatic nerve); test: Thermal hyperalgesia (thermal withdrawal latency) in rats with neuropathic pain (CCI); assay type: in vivo, rat; conditions: for thermal withdrawal latency (TWL) in comparison with group III (CCI): CCI rats, puerarin i.p. 50 mg/mL, 4 mL/kg daily, idomethine 4 mg/kg/d i.p. (seven days after ligation), p<0.01
# Protocol: Male SD rats, 220-250 g were provided by the Department of Experimental Animals from the Medical College of Nanchang University. The rats were divided into […] at random and 12 rats were included in each group. Experimental grouping: I (sham); II (puerarin); III (chronic constriction injuries, CCI); IV (CCI+puerarin); V (control); VI (CCI+Indo). The puerarin injection was dissolved in physiological saline and the concentration was 50 mg/mL. Group I were subjected to intraperitoneal injection of physiological saline (4 mL/kg); Group II were subjected to intraperitoneal injection of puerarin injection (4 mL/kg); Skins of the […] were cut open and their sciatic nerves were exposed, then their skin was sew up without ligating nerves. Group IV were subjected to intraperitoneal injection of puerarin injection (4 mL/kg) everyday on the first day after CCI operation. Intraperitoneal injection of idomethine (4 mg/kg/d) was carried out on the rats in […] half an hour before the operation and after the operation everyday, and the injection was carried out once a day until the test was finished.
# Thiopental sodium was used to anesthetize the rats (30 mg/kg, intraperitoneal injection), and the skin in the outer side of right thighs of the rats was cut open under sterile conditions, and blunt dissection was carried out to isolate the sciatic nerves, then the sciatic nerves were slightly ligated with 4-0 chromicized catgut and four ligations were carried out in total, and an interval of about 1 mm was left between two knots. […] The rats were raised in separate cages after the operation, and mechanical withdrawal threshold and thermal withdrawal latency were determined before the operation (0 d) and 1, 3, 5, 7, 9, 11, 14 days after the operations respectively (Time for the determination is set at 10[…]00-14[…]100 everyday, and the room temperature was maintained at 22±0.5° C.).
# The organic glass box was placed on a glass plate of 3 mm thick and BME-410C type automatic thermalgia stimulator (Institute of Biomedical Engineering, Chinese Academy of Medical Sciences) was used to irradiate the footplates of rats. The time for the appearance of leg withdrawal after the irradiation on footplates of rats by using the thermal radiation stimulator was considered as the thermal withdrawal latency (TWL). The time for cutting off was 30 seconds in order to prevent burn on tissues.
# [2] = tested on: P2X3 mRNA; test: RT-PCR of P2X3 mRNA expression in dorsal root ganglion of burn rats; assay type: in vivo, rat; conditions: n=3
# Protocol: SD rats (their body weights were between 200±20 g) were randomly divided into the group I (sham back burn), the group II (Puerarin, intraperitoneal injection), the group III (superficial second degree back burn), the group IV (superficial second degree back burn+puerarin), the group V (control) and the group VI (superficial second degree back burn+Indocin). The rats in the group IV (superficial second degree back burn+puerarin) were subjected to intraperitoneal injection of puerarin (100 mg/kg) 30 minutes before burn and after burn everyday for continuous three days. The rats in the group VI (superficial second degree back burn+Indocin) were subjected to intraperitoneal injection of idomethine (4 mg/kg/d) 30 minutes before burn and after burn everyday for continuous three days. Primer design: β-actin was selected as the internal reference and the sequences for the primers were as below: Gel image system was used to record the scanned values for spot density (average optical density) of target electrophoresis bands, and the ratio between P2X3 band and corresponding β-actin band was used as the relative amount of P2X3 mRNA expression.
# [3] = superficial second degree back burn + drug (puerarin 100 mg/kg i.p., idomethine 4 mg/kg/d i.p., three days), burn 1.04±0.03, control 0.91±0.03
compound,measurement,setting,value
"COc1ccc2c(c1)c(CC(=O)O)c(C)n2C(=O)c1ccc(Cl)cc1 [Indocin, Indometacin]",thermal withdrawal latency (TWL) in comparison with group III (CCI),[1],increased
same,"relative expression amount of P2X3 mRNA (after normalization with corresponding β-actin), RT-PCR",[2]; [3],0.97±0.02
O=c1c(-c2ccc(O)cc2)coc2c([C@@H]3O[C@H](CO)[C@@H](O)[C@H](O)[C@H]3O)c(O)ccc12 [puerarin],"thermal withdrawal latency, difference from group V (control) after 14 days","[1]; CCI rats + puerarin, 14 days, p>0.05",not statistically significant
same,thermal withdrawal latency (TWL) in comparison with group III (CCI),[1],significantly increased
same,"thermal withdrawal latency, difference among sham, puerarin alone and control","[1]; puerarin alone, no CCI, p>0.05",not significant
same,"relative expression amount of P2X3 mRNA (after normalization with corresponding β-actin), RT-PCR","[2]; puerarin alone i.p., no burn",0.89±0.02
same,"relative expression amount of P2X3 mRNA (after normalization with corresponding β-actin), RT-PCR",[2]; [3],0.90±0.02
